We go through four compounds from ChEMBL document CHEMBL1201862, “PubChem BioAssay data set” (2004).

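These data come from cells grown in 96-well plates and exposed to compound for 48 hours at five concentrations. GI50: concentration for 50% inhibition of growth.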 Calls of active or inactive are those of the source. No stated cut-off is given here; in the data, active = GI50 up to about 1.1 µM and inactive = higher. Some results are limits rather than exact numbers.

What all share (test): NCI-60 cell line screen, 48 h
Experiment [1] concerns BT-549.
Experiment [2] relates to CCRF-CEM.
Experiment [3] has as its system DU-145.
In experiment [4] the test system is HL-60.
The test system of experiment [5] is HOP-62.
Experiment [6] concerns HT-29.
Experiment [7] has as its system Hs-578T.
The subject of experiment [8] is LOX IMVI.
Experiment [9] deals with MDA-MB-435.
The subject of experiment [10] is MDA-N.
For experiment [11], the system named is MOLT-4.
In experiment [12] the test system is NCI-H522.
In experiment [13] the test system is SF-268.
In experiment [14] the test system is SK-MEL-2.
Experiment [15] relates to SK-MEL-5.
The test system of experiment [16] is SN12C.
Experiment [17] relates to SNB-19.
Experiment [18] has as its system SR.
Experiment [19] relates to T47D.

`CCn1c(-c2ccc(/N=N/Nc3ccc(-c4n[nH]c(=S)n4CC)cc3)cc2)n[nH]c1=S`: the GI50 in experiment [1] was 1.66 µM (inactive); in [2], 3.91 µM (inactive); in experiment [3], 2.87 µM (inactive); in [4], 2.93 µM (inactive); in [5], 2.74 µM (inactive); in experiment [6], 3.55 µM (inactive). Besides, the GI50 is 3.15 µM (inactive) in [7]; 3.46 µM (inactive) in experiment [8]; 2.45 µM (inactive) in experiment [9]; 3.19 µM (inactive) in experiment [10]; 2.17 µM (inactive) in [11]; 1.67 µM (inactive) in experiment [12]. In addition, the GI50 was 3.24 µM (inactive) in experiment [13]; 1.68 µM (inactive) in experiment [14]; 1.49 µM (inactive) in [15]; 3.02 µM (inactive) in experiment [16]; 2.55 µM (inactive) in experiment [17]; 3.47 µM (inactive) in experiment [18]. Further, in [19], the GI50 was 0.861 µM (active).

For the compound `CCOC(=O)C(C)NC(=O)C(C)NC(=O)C(C)NC(=O)C(C)NC(=O)C(C)NC(=O)OCc1ccccc1` (stereo unspecified), the GI50 in experiment [1], in [2], in experiment [3], in [4], in experiment [5] and in experiment [6] was > 100 µM (inactive) each time. In addition, the GI50 in [7], in [8], in [9], in experiment [10], in experiment [11] and in experiment [12] was > 100 µM (inactive) in each case. Moreover, the GI50 in [13], in experiment [14], in experiment [15], in experiment [16], in [17] and in experiment [18] was > 100 µM (inactive) in each case. Moreover, in experiment [19], the GI50 is > 100 µM (inactive).

Take `COC(=O)/C=C\C(C#N)(C#N)/N=C/c1ccc(C)cc1`: the GI50 in experiment [1] was 5.02 µM (inactive); in experiment [2], 0.0673 µM (active); in [3], 5.86 µM (inactive); in [4], 2.52 µM (inactive); in experiment [5], 19.3 µM (inactive); in [6], 3.8 µM (inactive). The GI50 in experiment [7] was 20.5 µM (inactive); in experiment [8], 2.33 µM (inactive); in experiment [9], 2.21 µM (inactive); in experiment [10] it was 4.06 µM (inactive); in experiment [11], 0.778 µM (active); in experiment [12], 0.378 µM (active). For the same compound, the GI50 was 3.78 µM (inactive) in experiment [13]; 16.3 µM (inactive) in [14]; 12.6 µM (inactive) in experiment [15]; 13.2 µM (inactive) in experiment [16]; 19.5 µM (inactive) in experiment [17]; 0.706 µM (active) in experiment [18]. Also, the GI50 in [19] is 1.79 µM (inactive).

For `Oc1nc(-c2cccc(F)c2)nc2ccccc12`, the GI50 in experiment [1] was > 46.9 µM (inactive); in [2], > 21.3 µM (inactive); in experiment [3] it was > 100 µM (inactive); in [4], > 100 µM (inactive); in experiment [5] it was 22.5 µM (inactive); in experiment [6], > 100 µM (inactive). Also, the GI50 in [7] was 15.7 µM (inactive); in experiment [8], > 100 µM (inactive); in experiment [9], > 86.1 µM (inactive); in experiment [10] it was > 62.8 µM (inactive); in [11], > 100 µM (inactive); in experiment [12], 43.9 µM (inactive). Also, the GI50 was 27.1 µM (inactive) in experiment [13]; 41 µM (inactive) in [14]; > 67.1 µM (inactive) in [15]; > 49.9 µM (inactive) in [16]; 19.9 µM (inactive) in experiment [17]; > 77.3 µM (inactive) in experiment [18]. For the same compound, the GI50 in [19] is > 100 µM (inactive).
